Here are results for 21 compounds from PubChem BioAssay AID248 (DTP/NCI, 2004).

Values joined by “and” are separate entries in the source; they are usually repeats but may differ in a detail not shown here. Equal entries are not always repeated. Inconclusive results and toxic doses are left out.

This assay deals with L1210 leukemia ip in BDF1 mice, survival T/C. The assay can be described thus: NCI In Vivo Anticancer Drug Screen. Data for tumor model L1210 Leukemia (intraperitoneal) in B6D2F1 (BDF1) mice. To be noted: endpoint: mean survival time, higher = longer survival. In outline: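 Value reflects the ratio of survival in compound-treated mice to survival in vehicle-treated controls, with both groups carrying the same transplanted tumor.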

The mark [1] stands for this setting: dose: 100.0 mg/kg/injection, schedule: Q01DX001 (ip), vehicle: carboxymethylcellulose (CMC).
Setting [2] is: dose: 200.0 mg/kg/injection, schedule: Q01DX001 (ip), vehicle: carboxymethylcellulose (CMC).
Where [3] appears, read: dose: 400.0 mg/kg/injection, schedule: Q01DX001 (ip), vehicle: carboxymethylcellulose (CMC).
Setting [4] is: dose: 100.0 mg/kg/injection, schedule: Q04DX002 (ip), vehicle: Klucel (hydroxypropylcellulose) (HPC).
Where [5] appears, read: dose: 200.0 mg/kg/injection, schedule: Q04DX002 (ip), vehicle: Klucel (hydroxypropylcellulose) (HPC).
Setting [6] is: dose: 100.0 mg/kg/injection, schedule: Q01DX001 (ip), vehicle: saline.
[7] abbreviates: dose: 200.0 mg/kg/injection, schedule: Q01DX001 (ip), vehicle: saline.
Setting [8] is: dose: 400.0 mg/kg/injection, schedule: Q01DX001 (ip), vehicle: saline.
Where [9] appears, read: dose: 100.0 mg/kg/injection, schedule: Q04DX003 (ip), vehicle: Klucel (hydroxypropylcellulose) (HPC).
Where [10] appears, read: dose: 200.0 mg/kg/injection, schedule: Q04DX003 (ip), vehicle: Klucel (hydroxypropylcellulose) (HPC).
[11] abbreviates: dose: 400.0 mg/kg/injection, schedule: Q04DX003 (ip), vehicle: Klucel (hydroxypropylcellulose) (HPC).
Where [12] appears, read: dose: 100.0 mg/kg/injection, schedule: Q01DX009 (ip), vehicle: saline with Tween-80.
[13] abbreviates: dose: 200.0 mg/kg/injection, schedule: Q01DX009 (ip), vehicle: saline with Tween-80.
Setting [14] is: dose: 100.0 mg/kg/injection, schedule: Q04DX003 (ip), vehicle: saline.
[15] abbreviates: dose: 200.0 mg/kg/injection, schedule: Q04DX003 (ip), vehicle: saline.
[16] abbreviates: dose: 50.0 mg/kg/injection, schedule: Q01DX001 (ip), vehicle: saline.

Regarding `Clc1cccc(C2ON2C2CCCCC2)c1` (stereo unspecified), the T/C under setting [1] is 92 % of control, the T/C under setting [2] is 100 % of control and the T/C under setting [3] was 94 % of control.

Regarding `O=C(/C=C/c1ccc([N+](=O)[O-])s1)c1cccc([N+](=O)[O-])c1`, the T/C is, setting by setting: under setting [4], 91 % of control; under setting [5], 100 % of control; (dose: 400.0 mg/kg/injection, schedule: Q04DX002 (ip), vehicle: Klucel (hydroxypropylcellulose) (HPC)) 100 % of control.

On to `CC(=O)OCC1OC(Sc2cccc3ccccc23)C(OC(C)=O)C(OC(C)=O)C1OC(C)=O` (stereo unspecified), for which the T/C is, setting by setting: under setting [6], 104 % of control; under setting [7], 93 % of control; under setting [8], 98 % of control.

Consider `CC(=O)[O][Pb]([CH2]C(C)C)([CH2]C(C)C)[CH2]C(C)C`, for which the T/C (dose: 1.5 mg/kg/injection, schedule: Q01DX009 (ip), vehicle: Klucel (hydroxypropylcellulose) (HPC)) is 97 % of control; the T/C (dose: 3.0 mg/kg/injection, schedule: Q01DX001 (ip), vehicle: Klucel (hydroxypropylcellulose) (HPC)) is 91 % of control; the T/C (dose: 3.0 mg/kg/injection, schedule: Q01DX009 (ip), vehicle: Klucel (hydroxypropylcellulose) (HPC)) is 95 % of control; the T/C (dose: 6.0 mg/kg/injection, schedule: Q01DX001 (ip), vehicle: Klucel (hydroxypropylcellulose) (HPC)) is 96 % of control; the T/C (dose: 6.0 mg/kg/injection, schedule: Q01DX009 (ip), vehicle: Klucel (hydroxypropylcellulose) (HPC)) is 95 % of control; the T/C (dose: 6.25 mg/kg/injection, schedule: Q01DX009 (ip), vehicle: Klucel (hydroxypropylcellulose) (HPC)) is 96 % of control. Besides, the T/C is, setting by setting: (dose: 12.0 mg/kg/injection, schedule: Q01DX001 (ip), vehicle: Klucel (hydroxypropylcellulose) (HPC)) 92 % of control; (dose: 12.5 mg/kg/injection, schedule: Q04DX002 (ip), vehicle: Klucel (hydroxypropylcellulose) (HPC)) 96 % of control.

As to `C/C=C/C=C\COC(=O)C(C)Cl` (stereo unspecified), the T/C reads like this: (dose: 100.0 mg/kg/injection, schedule: Q04DX002 (ip), vehicle: saline) 108 % of control; (dose: 200.0 mg/kg/injection, schedule: Q04DX002 (ip), vehicle: saline) 103 % of control; (dose: 400.0 mg/kg/injection, schedule: Q04DX002 (ip), vehicle: saline) 108 % of control.

As to `O=C(CF)N(O)c1ccc(/C=C/c2ccccc2)cc1`, the T/C by setting is: under setting [1], 101 % of control; under setting [2], 113 % of control.

In the case of `O=S(=O)(c1ccccc1)N1CC2C3C=CC(C3)C2C1` (stereo unspecified), the T/C runs as follows: under setting [9], 93 % of control; under setting [10], 109 % of control; under setting [11], 95 % of control.

For the compound `COc1ccc(NC(=O)Oc2cc(C)cc(C)c2)cc1`, the T/C reads like this: (dose: 100.0 mg/kg/injection, schedule: Q01DX009 (ip), vehicle: Klucel (hydroxypropylcellulose) (HPC)) 106 % of control; under setting [9], 100 % of control; (dose: 200.0 mg/kg/injection, schedule: Q01DX009 (ip), vehicle: Klucel (hydroxypropylcellulose) (HPC)) 101 % of control; under setting [10], 97 % of control; (dose: 400.0 mg/kg/injection, schedule: Q01DX009 (ip), vehicle: Klucel (hydroxypropylcellulose) (HPC)) 100 % of control; under setting [11], 92 % of control.

On to `O=C(Nc1cccc(C(=O)O)c1)Nc1ccc(Cl)c(C(F)(F)F)c1`, for which the T/C by setting is: under setting [12], 87 % of control; under setting [13], 100 % of control.

On to `CSc1ncnc2n[nH]c(Br)c12`, for which the T/C (dose: 100.0 mg/kg/injection, schedule: Q01DX005 (ip), vehicle: saline) is 93 % of control.

`CCOC(C(=O)O)(c1ccccc1)c1ccccc1`: the T/C is 97 % of control under setting [4] and 97 % of control under setting [5].

With `Cc1ccc(S(=O)(=O)Nc2ccccc2C(=O)c2ccc(C)c(C)c2)cc1`, the T/C under setting [1] is 100 % of control.

For the compound `CC(CN)NCc1ccccc1` (stereo unspecified), the T/C (dose: 100.0 mg/kg/injection, schedule: Q01DX009 (ip), vehicle: saline) was 96 % of control; the T/C under setting [14] is 103 % of control; the T/C (dose: 200.0 mg/kg/injection, schedule: Q01DX009 (ip), vehicle: saline) is 94 % of control; the T/C under setting [15] was 103 % of control; the T/C (dose: 400.0 mg/kg/injection, schedule: Q04DX003 (ip), vehicle: saline) was 95 % of control.

With `C=C(C)C1(Cc2ccccc2)C(=O)NC(=O)NC1=O`, the T/C (dose: 75.0 mg/kg/injection, schedule: Q01DX001 (ip), vehicle: saline) was 98 % of control.

Take `Cc1cccc(C2CCCCC2OS(C)(=O)=O)c1` (stereo unspecified): the T/C by setting is: under setting [1], 101 % of control; under setting [2], 108 % of control; under setting [3], 95 % of control.

For `O=C(CCl)NCC1(c2ccc(Cl)cc2)SC(CNC(=O)CCl)(c2ccc(Cl)cc2)S1` (stereo unspecified), the T/C is, setting by setting: under setting [12], 97 % of control; under setting [13], 92 % of control; (dose: 400.0 mg/kg/injection, schedule: Q01DX009 (ip), vehicle: saline with Tween-80) 104 % of control.

For `C[n+]1ccc(Nc2ccc(NC(=O)c3ccc(Nc4cc[n+](C)c5ccc([N+](=O)[O-])cc45)cc3[N+](=O)[O-])cc2)cc1`, the T/C (dose: 12.5 mg/kg/injection, schedule: Q01DX009 (ip), vehicle: saline) was 112 % of control; the T/C (dose: 25.0 mg/kg/injection, schedule: Q01DX001 (ip), vehicle: saline) was 105 % of control; the T/C (dose: 25.0 mg/kg/injection, schedule: Q01DX009 (ip), vehicle: saline) was 117 % of control; the T/C (dose: 25.0 mg/kg/injection, schedule: Q04DX003 (ip), vehicle: suspension in saline) was 111 % of control; the T/C under setting [16] is 98 % of control; the T/C (dose: 50.0 mg/kg/injection, schedule: Q01DX009 (ip), vehicle: saline) was 120 % of control. For the same compound, the T/C is 116 % of control (dose: 50.0 mg/kg/injection, schedule: Q04DX003 (ip), vehicle: suspension in saline); 105 % of control under setting [6]; 114 % of control (dose: 100.0 mg/kg/injection, schedule: Q01DX001 (ip), vehicle: suspension in saline); 105 % of control and 104 % of control under setting [14]; 120 % of control and 123 % of control under setting [15]; 190 % of control and 203 % of control (dose: 200.0 mg/kg/injection, schedule: Q04DX003 (ip), vehicle: suspension in saline). Further, the T/C (dose: 400.0 mg/kg/injection, schedule: Q01DX001 (ip), vehicle: suspension in saline) is 173 % of control and 206 % of control; the T/C (dose: 400.0 mg/kg/injection, schedule: Q04DX003 (ip), vehicle: suspension in saline) was 90 % of control; the T/C (dose: 600.0 mg/kg/injection, schedule: Q04DX003 (ip), vehicle: saline) was 119 % of control; the T/C (dose: 800.0 mg/kg/injection, schedule: Q04DX002 (ip), vehicle: saline) was 102 % of control and 108 % of control.

Turning to `N=C(N)S/C=C/C(=O)O`, the T/C runs as follows: (dose: 25.0 mg/kg/injection, schedule: Q04DX002 (ip), vehicle: saline with Tween-80) 96 % of control; (dose: 50.0 mg/kg/injection, schedule: Q04DX002 (ip), vehicle: saline with Tween-80) 96 % of control; (dose: 100.0 mg/kg/injection, schedule: Q04DX002 (ip), vehicle: saline with Tween-80) 96 % of control and 98 % of control.

As to `C(=C(/c1ccccc1)N1CCOCC1)/c1ccccc1`, the T/C (dose: 100.0 mg/kg/injection, schedule: Q04DX002 (sc), vehicle: olive oil, sesame oil, peanut oil) was 118 % of control; the T/C (dose: 200.0 mg/kg/injection, schedule: Q04DX002 (sc), vehicle: olive oil, sesame oil, peanut oil) was 99 % of control; the T/C (dose: 400.0 mg/kg/injection, schedule: Q04DX002 (sc), vehicle: olive oil, sesame oil, peanut oil) was 99 % of control.

Regarding `O=c1[nH]c2c(cnn2-c2ccccc2)c(=O)n1OS(=O)(=O)c1ccccc1`, the T/C under setting [16] was 103 % of control, the T/C under setting [6] was 103 % of control, the T/C under setting [7] is 100 % of control and the T/C under setting [8] was 97 % of control.

`CC(C)(C)C(O)C1CCCS1(=O)=O` (stereo unspecified): the T/C (dose: 50.0 mg/kg/injection, schedule: Q01DX001 (ip), vehicle: Klucel (hydroxypropylcellulose) (HPC)) was 96 % of control.
